Earlier results, collected in patent US20220279780A1, “AGRICULTURAL FORMULATION” (ISHIHARA SANGYO KAISHA, LTD., priority 2019, published 2022).

## N#CCNC(=O)c1cnccc1C(F)(F)F [flonicamid]
  water solubility: 5,200 ppm
